Measured values reported in paper PMC4035770 (Pharmaceuticals, 2014).
Counter-ions that a name gives are not always drawn.

Legend:
[1] = biological target: Muscarinic non -selective, central; experiment: Pharmacological screen, muscarinic receptor binding
Nicotinic acetylcholine = experiment: Pharmacological screen, nicotinic acetylcholine receptor binding; settings: Nicotinic acetylcholine
Method: 2.4. Plasma LLOQ/Precision […]
of 10 ng/mL. […] ACN (200 µL) […]
was added and the solution was vortex mixed. The remaining mixture was centrifuged at 10,000 rpm […]
The final concentration was 1 ng/mL. […]
signal to noise ratio of three.
2.6. Brain LLOQ Accuracy/Precision
Aliquots (5 × 200 µL) were […]
transferred to 1.5 mL microcentrifuge tubes.
ACN (300 µL) was added and […]
the solution was vortex mixed. […] 200 µL
The solution was vortex mixed again and analysed by HPLC. Final concentrations were 12.5, 125 ng/mL.
2.7. Pharmacological Screening of N-Methyl Bupropion and Bupropion […]
nicotinic acetylcholine receptor [5,6] and SERT [7,8]. The specific nicotinic acetylcholine assays are […]
and nicotinic acetylcholine α7 [12].
3. Results Method Validation […]
diluent solutions separately.

[2] = biological target: T1, Norepinephrine transporter (NET) (Homo sapiens, UniProt P23975); experiment: Pharmacological screen, norepinephrine transporter; format: binding; settings: NET
T1 construct: MDS Pharma Services Taiwan

[3] = cited from earlier work
[4] = design: method as in earlier work; settings: plasma samples; cited from earlier work
[5] = Aqueous pH stability profile at 40 °C
[6] = Screening incubation in USP simulated gastric fluid (SGF); settings: incubation 37 °C, one hour, n = 2; <LOD = bupropion, its metabolites or other prodrugs not detected; LOD 0.1 ng/mL
Method: USP simulated gastric fluid preparation. Sodium chloride (0.02 g) and purified pepsin (0.032 g) that is derived from porcine stomach mucosa with an activity of 800 to 2,500 units per mg of protein were dissolved in 0.07 mL of concentrated hydrochloric acid and sufficient water to make 10 mL.
(§1) Pepsin is most efficient at cleaving peptide bonds between hydrophobic and aromatic amino acids such as phenylalanine, tryptophan and tyrosine. In order to simulate the pH and digestive enzymes of the stomach, USP simulated gastric fluid (SGF) was used. Conditions in the intestine were simulated using USP simulated intestinal fluid (SIF).
(§2) One hour metabolism or hydrolysis was considered to be sufficient time to generate detectable levels of metabolites, bearing in mind the likely exposure time in vivo. A blank media was used in each analysis to subtract a background from each LC-MS sample chromatogram. A t0 sample was also used to identify impurities related to each prodrug.
(§3) After one hour incubation of each compound in the selected media, the mixture was quenched with acetonitrile and the sample was centrifuged to remove precipitated proteins. The supernatant solution was analyzed immediately by LC-MS using data dependent acquisition analysis.
(§4) This transformation is commonly used to assess activity of oxidative enzyme CYP2B6 in human liver and intestinal microsomes. […] It was important to report if any of the other prodrugs were detected if for instance a possible multistep-prodrug was found.

[7] = Screening incubation in USP simulated intestinal fluid (SIF); settings: incubation 37 °C, one hour, n = 2; <LOD = bupropion, its metabolites or other prodrugs not detected; LOD 0.1 ng/mL
Method: USP simulated intestinal fluid preparation. Monobasic potassium phosphate (0.068 g) was dissolved in 2.5 mL of water and mixed. Sodium hydroxide (0.77 mL of 0.2 M) and water (5.0 mL) were added. Pancreatin (0.1 g) was added and the pH adjusted with either 0.2 M sodium hydroxide or 0.2 M hydrochloric acid to a pH of 6.8 ± 0.1. The solution was diluted to 10 mL with water.
as §1, §2, §3, §4

[8] = Microsomal metabolic stability screen, pooled human intestinal microsomes (HIM); format: in vitro ADME; settings: 10 µM prodrug, 0.02 mg/mL HIM, NADPH regenerating system, 37 °C, 60 min, n = 2; LOD 0.1 ng/mL
Method: Human intestinal microsome (HIM) stock solution preparation. HIM (0.2 mL) stock was added to PBS solution (9.8 mL). Final concentration; 0.2 mg/mL.
(§5) Microsomes, NADPH regenerating solutions A and B were thawed rapidly to 37 °C, then kept on wet ice until ready for use. A stock solution of the prodrug (5 mM) was prepared in ACN. To a 1.7 mL microcentrifuge tube in a 37 °C water bath was added the phosphate buffered saline solution (349 µL), the NADPH regenerating solution A (50 µL), the NADPH regenerating solution B (50 µL), and the prodrug solution (1 µL). After incubation for 5 min, microsome solution (50 µL) was added and the metabolism was initiated. The tube was vortex mixed. The final concentrations in this solution was 10 µM prodrug, 0.1 mg/mL HLM or 0.02 mg/mL HIM, 1.3 mM NADP^+, 0.4 U/mL glucose-6-phosphate dehydrogenase and 0.2% organic solvent. This solution was incubated for 60 min at 37 °C. The reaction was quenched by addition of acetonitrile (500 µL). The mixture was centrifuged at 10,000 × g for 10 min. The supernatant was analyzed by LC-MS analysis.
The intestinal cells contain cytochome P450 enzymes, flavin monoxygenases, esterases and UDP glucuroyl transferases. Condition III involved the use of pooled human intestinal microsomes (HIM) in order to simulate the potential metabolism that occurs during absorption and passage through the intestinal wall.

[9] = Microsomal metabolic stability screen, pooled human liver microsomes (HLM); format: in vitro ADME; settings: 10 µM prodrug, 0.1 mg/mL HLM, NADPH regenerating system, 37 °C, 60 min, n = 2; LOD 0.1 ng/mL
Method: Human liver microsome (HLM) stock solution preparation. HLM (0.5 mL) stock was added to PBS solution (9.5 mL). Final concentration; 1 mg/mL. The PBS solution was prepared by addition of one USP PBS tablet (Sigma-Aldrich catalogue number P4417) dissolved in 200 mL deionised water.
as §5
After passing through the intestinal membrane into the portal circulation the prodrug quickly enters the liver. This metabolic condition was simulated in the present work by using pooled human liver microsomes (HLM).

[10] = Screening incubation in pooled human plasma (PHP); format: in vitro ADME; settings: incubation 37 °C, one hour, n = 2; <LOD = bupropion, its metabolites or other prodrugs not detected; LOD 0.1 ng/mL
Source text: Pooled human plasma solution preparation. Citrated human plasma was pooled together from three separate donors.
Finally, pooled human plasma (PHP) was used to evaluate the prodrug stability/activation in blood since the plasma fraction contains much of the hydrolase activity in blood.

[11] = Michaelis-Menten kinetics of bupropion formation in pooled human liver microsomes; format: in vitro ADME; design: intrinsic hepatic clearance (Cli, h): unit not given here
Method: Microsomes, NADPH regenerating solutions A and B were thawed rapidly to 37 °C, and then kept on ice until ready for use. Substrate solutions were prepared (1–500 µM) where the maximum concentration of DMSO was 1%, and the concentration of microsomes, NADPH regenerating solution B and phosphate buffer was fixed. After incubation for 5 min, NADPH regenerating solution A was added and the metabolism was initiated. Final volume was 100 μL. The tube was inverted twice and vortex mixed. The final concentrations of prodrug in this solution was 1–500 µM, HLM (0.1 mg/mL) or HIM (0.02 mg/mL), NADP^+ (1.3 mM), glucose-6-phosphate dehydrogenase (0.4 U/mL) and 1.0% DMSO. This solution was incubated for 20 min at 37 °C. The reaction was quenched by addition of 100 µL of acetonitrile. The mixture was centrifuged at 10,000 × g for 10 min. The supernatant was analyzed by LC-MS analysis.

[12] = In vitro metabolic screen in the five media (SGF, SIF, HIM, HLM, PHP), overall statement; format: in vitro ADME; settings: 37 °C, one hour, statement in words
Source text: A summary of the oral prodrug candidate matrix we developed is illustrated in Figure 2. It contained six main conditions and can be applied to the development of any drug candidate. The work plan starts out with a concept molecule which in this case was bupropion. At this stage prodrug candidates are identified and the literature is searched for transformations that have been reported and methods used to carry out these transformations. […] After synthesis and purification of each potential prodrug, full spectroscopic characterization was performed. Each prodrug was screened in the metabolic media to assess its stability. Potential prodrug candidates were then selected for further in vitro enzyme kinetic and hydrolysis studies to evaluate the most likely prodrug for further in vivo assessment.
The five media (SGF, SIF, HIM, HLM and PHP) best represent the transit a drug or prodrug would take if delivered by the oral route of administration.

T1 sequence (P23975 whole entry): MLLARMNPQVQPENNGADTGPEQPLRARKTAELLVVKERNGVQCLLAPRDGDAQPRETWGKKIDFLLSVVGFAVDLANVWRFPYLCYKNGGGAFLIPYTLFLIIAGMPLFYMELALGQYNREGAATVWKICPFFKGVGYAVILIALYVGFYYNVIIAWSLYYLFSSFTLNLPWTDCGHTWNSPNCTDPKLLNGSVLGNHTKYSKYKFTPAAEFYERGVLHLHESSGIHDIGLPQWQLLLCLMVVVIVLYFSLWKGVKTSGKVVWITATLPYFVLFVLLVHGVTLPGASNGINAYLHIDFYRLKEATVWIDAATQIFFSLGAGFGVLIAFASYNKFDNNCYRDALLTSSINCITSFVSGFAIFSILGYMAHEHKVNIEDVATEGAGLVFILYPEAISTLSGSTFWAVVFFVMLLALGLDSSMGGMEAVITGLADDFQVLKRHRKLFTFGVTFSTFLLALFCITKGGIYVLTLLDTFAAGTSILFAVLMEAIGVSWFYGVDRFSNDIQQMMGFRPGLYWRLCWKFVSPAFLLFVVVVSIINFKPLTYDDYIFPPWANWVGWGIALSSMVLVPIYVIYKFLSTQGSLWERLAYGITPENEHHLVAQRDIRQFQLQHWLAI

SMILES | Primary product detected in media SGF [6] | Primary product detected in media SIF [7] | Primary product detected in media HIM [8] | Primary product detected in media HLM [9] | Primary product detected in media PHP [10] | Product / activation to bupropion or its metabolites on screening in the metabolic media [12] | further results
CC(NC(C)(C)C)C(=O)c1cccc(Cl)c1 (racemic) [Bupropion, Rac-bupropion hydrochloride, reference compound] | – | – | – | – | – | – | IC50 [1]: 86.5 µM; Ki ([1]; Cheng and Prusoff): 27 µM; IC50 (Nicotinic acetylcholine): > 100 µM; nH (Hill coefficient) [2]: 0.835; aqueous stability profile above pH 5 [3]: poor stability profile; sample stability in plasma (pH) [4]: stable at low pH; aqueous degradation rate above pH 12 ([5]; above pH 12): rate of degradation increases significantly; aqueous stability / degradation rate below pH 5 ([5]; below pH 5): stable
CC(C(=O)c1cccc(Cl)c1)N(Cc1ccccc1)C(C)(C)C (racemic) [Compound 5, Rac-N-benzyl bupropion] | <LOD | <LOD | The major product was bupropion | The major product was bupropion | <LOD | – | intrinsic hepatic clearance (Cli, h) ([11]; from HLM Michaelis-Menten parameters): 87; Vmax of bupropion formation ([11]; pooled HLM 0.1 mg/mL, substrate 1–500 µM, 20 min, 37 °C, n = 6): 1323 ± 42.2 pmol/min/mg HLM
CC1C(c2cccc(Cl)c2)=NOCN1C(C)(C)C (racemic) [Compound 10, Rac-oxadiazine of bupropion] | <LOD | <LOD | – | – | <LOD | – | –
CC1C(c2cccc(Cl)c2)=NOC(=O)N1C(C)(C)C (racemic) [Compound 11, Rac-oxadiazinone of bupropion] | <LOD | <LOD | <LOD | <LOD | <LOD | resistant to all of the screening conditions | –
CO/C(=C(/C)N(C)C(C)(C)C)c1cccc(Cl)c1 [Compound 6, E/Z-N,O-dimethylated bupropion] | <LOD | <LOD | – | – | <LOD | N-methylbupropion (4) | –
CO/C(=C(/C)N(Cc1ccccc1)C(C)(C)C)c1cccc(Cl)c1 [Compound 7, (E/Z)-O-methyl N-benzyl bupropion] | <LOD | <LOD | O-demethylated to N-benzylbupropion (5) | O-demethylated to N-benzylbupropion (5) | <LOD | – | –
CC(=O)O/C(=C(/C)N(C(C)=O)C(C)(C)C)c1cccc(Cl)c1 [Compound 8, (E/Z)-N,O-diacetylated bupropion] | <LOD | <LOD | <LOD | <LOD | <LOD | did not result in any activation back to bupropion or its metabolites | –
CC(NC(C)(C)C)/C(=N/O)c1cccc(Cl)c1 (stereo not drawn) [Compound 9, syn- and anti-bupropion hydroxyimine] | <LOD | <LOD | <LOD | <LOD | <LOD | neither bupropion nor any of its metabolites were detected | stability / hydrolysis in simulated gastric fluid (SGF pH 1.2, 37 °C): none was detected; stability at physiological pH (phosphate buffered saline pH 7.4, 37 °C): much greater stability than bupropion
Cc1c(-c2cccc(Cl)c2)oc(=O)n1C(C)(C)C [Compound 12, oxazolone of bupropion] | <LOD | <LOD | <LOD | <LOD | <LOD | no bupropion or metabolites thereof detected | –
